For series [1], the system named is Blumeria graminis fsp. hordei. The series is described as follows: Blumeria test (barley)/preventive. In kind it is in vivo. The settings on record: 500 ppm of active ingredient, preventive, evaluated 7 days after inoculation. How it is done:
(§1) Solvent: 49 parts by weight of N,N-dimethylacetamide Emulsifier: 1 part by weight of alkylaryl polyglycol ether To produce a suitable preparation of active compound, 1 part by weight of active compound or active compound combination is mixed with the stated amounts of solvent and emulsifier, and the concentrate is diluted with water to the desired concentration. To test for preventive activity, young plants are sprayed with the preparation of active compound or active compound combination at the stated rate of application. After the spray coating has been dried, the plants are dusted with spores of Blumeria graminis fsp. hordei. The plants are placed in the greenhouse at a temperature of approximately 18° C. and a relative atmospheric humidity of approximately 80% to promote the development of mildew pustules.

Series [2] relates to Pyrenophora teres. The experiment in a line: In vivo preventive test on Pyrenophora teres (net blotch on barley). The following applies: barley plants, preventive spray, evaluated 14 days after inoculation. How it is done: The young plants of barley are treated by spraying the active ingredient prepared as described above. Control plants are treated only with an aqueous solution of acetone/Dimethyl sulfoxide/Tween®. After 24 hours, the plants are contaminated by spraying the leaves with an aqueous suspension of Pyrenophora teres spores.

Series [3] has as its system Puccinia recondita. The experiment in a line: In vivo preventive test on Puccinia recondita (brown rust on wheat). The settings on record: wheat plants, preventive spray, evaluated 11 days after inoculation. How it is done:
The young plants of wheat are treated by spraying the active ingredient prepared as described above. Control plants are treated only with an aqueous solution of acetone/Dimethyl sulfoxide/Tween®. After 24 hours, the plants are contaminated by spraying the leaves with an aqueous suspension of Puccinia recondita spores.

Series [4] concerns Fusarium nivale (var. majus). The experiment in a line: Fusarium nivale (var. majus)-test (wheat)/preventive. In kind it is in vivo. The following applies: 500 ppm of active ingredient, preventive, evaluated 5 days after inoculation. How it is done: as §1, with “slightly injured by using a sandblast and afterwards they are sprayed” for “dusted”, “a conidia suspension” for “spores”, “Fusarium nivale (var. majus).” for “Blumeria graminis fsp. hordei. The plants are placed in the greenhouse at a temperature of approximately 18° C. and a relative atmospheric humidity of approximately 80% to promote the development of mildew pustules.”

Series [5] has as its system Septoria tritici. The series is described as follows: In vivo preventive test on Septoria tritici (leaf spot on wheat). The following applies: wheat plants, preventive spray, evaluated 24 days after inoculation. How it is done:
The young plants of wheat are treated by spraying the active ingredient prepared as described above. Control plants are treated only with an aqueous solution of acetone/Dimethyl sulfoxide/Tween®. After 24 hours, the plants are contaminated by spraying the leaves with an aqueous suspension of Septoria tritici spores.

In series [6] the test system is Uromyces appendiculatus. The series is described as follows: In vivo preventive test on Uromyces appendiculatus (bean rust). The following applies: bean plants, preventive spray, evaluated 11 days after inoculation. How it is done: The young plants of bean are treated by spraying the active ingredient prepared as described above. Control plants are treated only with an aqueous solution of acetone/Dimethyl sulfoxide/Tween®. After 24 hours, the plants are contaminated by spraying the leaves with an aqueous suspension of Uromyces appendiculatus spores.

The test system of series [7] is Leptosphaeria nodorum. The series is described as follows: Leptosphaeria nodorum test (wheat)/preventive. In kind it is in vivo. The following applies: 500 ppm of active ingredient, preventive, evaluated 8 days after inoculation. How it is done: as §1, with “sprayed” for “dusted”, “a spore suspension” for “spores”, “Leptosphaeria nodorum. […]” for “Blumeria graminis fsp. hordei.”, “22°” for “18°”, “80%.” for “80% to promote the development of mildew pustules.”

The subject of series [8] is Sphaerotheca fuliginea. The experiment in a line: In vivo preventive test on Sphaerotheca fuliginea (powdery mildew on cucurbits). The following applies: gherkin plants, preventive spray, evaluated 15 days after inoculation. How it is done: The young plants of gherkin are treated by spraying the active ingredient prepared as described above. Control plants are treated only with an aqueous solution of acetone/Dimethyl sulfoxide/Tween®. After 24 hours, the plants are contaminated by spraying the leaves with an aqueous suspension of Sphaerotheca fuliginea spores.

Series [9] is described as follows: physchem. The settings on record: pH 2.7.
The subject of series [10] is Phakopsora pachyrhizi. The series is described as follows: Phakopsora test (soybeans)/preventive. In kind it is in vivo. The settings on record: 10 ppm of active ingredient, preventive, evaluated 7 days after inoculation.
The test system of series [11] is Botrytis cinerea. The experiment in a line: In vivo preventive test on Botrytis cinerea (grey mould). The settings on record: gherkin plants, preventive spray, evaluated 4 to 5 days after inoculation. How it is done: The young plants of gherkin are treated by spraying the active ingredient prepared as described above. Control plants are treated only with an aqueous solution of acetone/Dimethyl sulfoxide/Tween®. After 24 hours, the plants are contaminated by spraying the leaves with an aqueous suspension of Botrytis cinerea spores. The contaminated gherkin plants are incubated for 4 to 5 days at 17° C. and at 90% relative humidity.

Series [12] has as its system Fusarium graminearum. In kind it is in vivo. The settings on record: 500 ppm of active ingredient; barley, preventive; evaluated 5 days after inoculation.
Series [13] has as its system Fusarium culmorum. The experiment in a line: Fusarium culmorum-test (wheat)/preventive. In kind it is in vivo. The following applies: 500 ppm of active ingredient, preventive, evaluated 5 days after inoculation. How it is done: Solvent: 49 parts by weight of N,N-dimethylacetamide
Emulsifier: 1 part by weight of alkylaryl polyglycol ether
To produce a suitable preparation of active compound, 1 part by weight of active compound or active compound combination is mixed with the stated amounts of solvent and emulsifier, and the concentrate is diluted with water to the desired concentration.
To test for preventive activity, young plants are sprayed with the preparation of active compound or active compound combination at the stated rate of application. After the spray coating has been dried, the plants are slightly injured by using a sandblast and afterwards they are sprayed with a conidia suspension of Fusarium culmorum.
The plants are placed in the greenhouse under a translucent incubation cabinet at a temperature of approximately 22° C. and a relative atmospheric humidity of approximately 100%.
The test is evaluated 5 days after the inoculation. 0% means an efficacy which corresponds to that of the untreated control, while an efficacy of 100% means that no disease is observed.

Series [14] relates to Pyricularia oryzae. In kind it is in vivo. The following applies: 500 ppm of active ingredient; rice, preventive; evaluated 8 days after inoculation.

Like-named read-outs stand apart in the source and are kept apart here. Marks after values point to notes of the source that are not given here.

As to `OC(Cc1ccncc1Cl)(CC1CC1)Cn1cncn1` (stereo not drawn) [Example I-30], the Eff. % in series [1] came out at 100%; in series [2] (500 ppm of active ingredient), 71%; in [3] (500 ppm of active ingredient), 94%; in [4], 100%; in series [5] (500 ppm of active ingredient) it was 100%; in series [6] (500 ppm of active ingredient) it was 100%. For the same molecule, the Eff. % in series [7] worked out at 88%; in series [8] (500 ppm of active ingredient) it was 100%. For the same molecule, where the note is “pH 2.7”, the LogP was 1.43^[a].
In the case of `CC(C)(C)C(=O)Cc1cccnc1Cl` [Example V-4, 1-(2-chloropyridin-3-yl)-3,3-dimethylbutan-2-one], the chromatographic logP in series [9] turned out to be 2.34.
With `CC(C)(C)C(O)(Cc1ccnc(Cl)c1F)Cn1cncn1` (stereo not drawn) [Example I-27], the Eff. % in [1] turned out to be 100%; in series [2] (500 ppm of active ingredient), 97%; in series [10], 75%; in [3] (500 ppm of active ingredient), 98%; in [11] (500 ppm of active ingredient), 100%; in series [4] it was 100%. Moreover, the Eff. % turned out to be 97% in [5] (500 ppm of active ingredient); 100% in [6] (500 ppm of active ingredient); 88% in series [7]; 100% in series [12]; 100% in series [13]; 100% in series [8] (500 ppm of active ingredient). Under “pH 2.7”, the LogP is 2.16^[a].
For `CCC(C)(C)C(O)(Cc1ccncc1Cl)Cn1cncn1` (stereo not drawn) [Example I-5], the Eff. % in series [1] was found to be 100%; in series [2] (100 ppm of active ingredient), 83%; in series [3] (100 ppm of active ingredient) it was 90%; in [11] (100 ppm of active ingredient) it was 89%; in series [4], 100%; in [5] (100 ppm of active ingredient), 97%. For the same molecule, the Eff. % in [6] (100 ppm of active ingredient) was found to be 100%; in series [7], 100%; in [14], 93%; in series [12] it was 100%; in series [13], 100%; in [8] (100 ppm of active ingredient), 100%. In addition, the LogP (pH 2.7) was 2.13^[a].
With `CC(C)(C)C(O)(Cc1cc(F)ncc1Cl)Cn1cncn1` (stereo not drawn) [Example I-29], the Eff. % came to 100% in series [1]; 93% in series [2] (500 ppm of active ingredient); 78% in series [10]; 100% in series [3] (500 ppm of active ingredient); 100% in series [11] (500 ppm of active ingredient); 100% in [4]. Moreover, the Eff. % in series [5] (500 ppm of active ingredient) was 100%; in series [6] (500 ppm of active ingredient), 100%; in [7], 100%; in series [14] it was 71%; in [12], 100%; in series [13], 100%. In [8] (500 ppm of active ingredient), the Eff. % is on record as 100%. The LogP (pH 2.7) was 2.39^[a].
Turning to `CC(C)(C)C1(Cc2ccncc2Cl)CO1` (stereo not drawn) [XII-5, 4-[(2-tert-butyloxiran-2-yl)methyl]-3-chloropyridine], the chromatographic logP in series [9] is 2.8.
`CCC(C)(C)C(O)(Cc1ccncc1F)Cn1cncn1` (stereo not drawn) [Example I-7]: the Eff. % was 100% in series [1]; 81% in series [3] (100 ppm of active ingredient); 97% in series [11] (100 ppm of active ingredient); 100% in series [4]; 81% in [5] (100 ppm of active ingredient); 100% in series [6] (100 ppm of active ingredient). Moreover, the Eff. % was determined as 100% in series [7]; 89% in series [14]; 100% in series [12]; 100% in series [13]; 100% in series [8] (100 ppm of active ingredient). Further, the LogP (method [a]: LC-MS at pH 2.7, 0.1% formic acid in water / acetonitrile gradient) was 1.73^[a].

Broadly, the chromatographic logP is a lipophilicity value derived from retention on a column. A low value points to a more hydrophilic compound.
